From patent US12605442B2 (priority 2020, dated 2026)
Entries after “also recorded” stand apart in the source; their conditions may differ.

How the values were obtained:
lentivirus = lentivirus inactivation by photosensitizer and UV light
MERS CoV = settings: riboflavin 50 micromolar and UV light, six minutes, plasma; cited from earlier work
SARS-CoV-2 = SARS-CoV-2 inactivation in Mirasol device; settings: 50 μM riboflavin
[1] = rats
[2] = system: recombinant adeno-associated virus (AAV); settings: reagent alone, room temperature, 2 hours
recombinant AAV = test: AAV particle size by dynamic light scattering; format: physicochemical

## Cc1cc2nc3c(=O)[nH]c(=O)nc-3n(C[C@H](O)[C@H](O)[C@H](O)CO)c2cc1C [riboflavin]
lentivirus; 50 μM riboflavin in the presence of UV light
  time to complete inactivation of lentivirus: ≤ 20 min
MERS CoV
  MERS coronavirus titers: reduction
SARS-CoV-2; 100 Joules UV in 19 seconds, 100 mLs, limit of detection 1.0 Log per mL
  Log Reduction in viral titer: greater than 4.2 Log
SARS-CoV-2; about 100 Joules UV, to the limit of detection
  inactivation of SARS-CoV-2: Complete inactivation; also recorded: completely inactivated
[1]
  toxicity of residual riboflavin remaining after viral inactivation: does not induce toxicity
[2]
  infectious titer of recombinant AAV: reduce the infectious titer
Recombinant AAV; 50 μM riboflavin and UV light, later time points
  average hydrodynamic radius of viral aggregates: greater than 60 nm

## O=c1ccc2cc3ccoc3cc2o1 [psoralen]
lentivirus; 1.5 mM psoralen and UV light
  time to inactivation of lentivirus: approximately 2 hours
[2]
  infectious titer of recombinant AAV: reduce the infectious titer
Recombinant AAV; 1.5 mM psoralen and UV light
  change in particle size distribution: No significant change in particle size distribution
